In patent publication US20250163038A1, “CBL-B MODULATORS AND USES THEREOF” (Nimbus Clio, Inc., priority 2021, published 2025):
Like-named read-outs stand apart in the source and are kept apart here.

Key:
[1] = target: Recombinant human Cbl-b (aa 36-427) (Homo sapiens, UniProt Q13191); experiment: Cbl-b Biochemical Assay (TR-FRET); conditions: read-out: TR-FRET hCbl-b IC50
[2] = target: T1, Recombinant human c-Cbl (aa 47-435) (Homo sapiens, UniProt P22681); experiment: c-Cbl Biochemical Assay (TR-FRET); conditions: hc-Cbl Biochemical Assay (TR-FRET); read-out: TR-FRET hcCbl IC50
T1 sequence (P22681 47-435): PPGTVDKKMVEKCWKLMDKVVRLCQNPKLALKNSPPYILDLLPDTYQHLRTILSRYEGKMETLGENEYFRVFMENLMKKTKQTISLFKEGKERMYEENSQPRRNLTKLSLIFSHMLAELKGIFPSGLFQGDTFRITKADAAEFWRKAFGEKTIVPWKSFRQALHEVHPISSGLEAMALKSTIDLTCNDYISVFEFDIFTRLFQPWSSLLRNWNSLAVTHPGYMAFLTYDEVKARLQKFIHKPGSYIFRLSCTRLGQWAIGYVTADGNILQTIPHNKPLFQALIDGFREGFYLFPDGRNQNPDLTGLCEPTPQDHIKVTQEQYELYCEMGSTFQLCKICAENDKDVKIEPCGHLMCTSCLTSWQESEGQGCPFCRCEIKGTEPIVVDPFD

[3] = test system: Jurkat (clone E6-1) cells with NFAT luciferase reporter; experiment: Jurkat reporter assay (NFAT Luciferase); type: cell-based; conditions: Homo sapiens
[4] = Jurkat NFAT luciferase reporter cells, anti-CD3 stimulation, 6 hr, read-out: Jurkat NFAT EC50

Recombinant human Cbl-b (aa 36-427), sequence (Q13191 36-427): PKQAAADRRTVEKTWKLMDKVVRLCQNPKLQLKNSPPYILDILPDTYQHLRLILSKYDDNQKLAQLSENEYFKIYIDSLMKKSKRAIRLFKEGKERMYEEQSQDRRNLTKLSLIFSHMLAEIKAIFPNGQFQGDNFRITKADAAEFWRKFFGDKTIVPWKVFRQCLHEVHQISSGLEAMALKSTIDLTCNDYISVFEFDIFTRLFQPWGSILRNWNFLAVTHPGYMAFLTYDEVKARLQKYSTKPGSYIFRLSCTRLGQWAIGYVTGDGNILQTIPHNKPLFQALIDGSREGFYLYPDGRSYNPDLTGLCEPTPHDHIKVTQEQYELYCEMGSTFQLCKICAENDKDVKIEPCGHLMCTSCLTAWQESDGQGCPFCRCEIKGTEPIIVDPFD

Structure (SMILES)	IC50 [1] [nM]	IC50 [2] [nM]	EC50 [3, 4] [µM]	EC50 ([3]; Jurkat, 6 h, read-out: Jurkat NFAT EC50 (μM)) [µM]
Cn1cnnc1-c1cc(F)ccc1-c1cccc(-c2nc3cc(CO)cc(Br)c3o2)c1 [EQ-4, (7-Bromo-2-(4′-fluoro-2′-(4-methyl-4H-1,2,4-triazol-3-yl)-[1,1′-biphenyl]-3-yl)benzo[d]oxazol-5-yl)methanol]	200 to 1000	200 to 1000	1 to 10	
Cn1cnnc1-c1cc(F)ccc1-c1cccc(-c2nc3cc(CNCC4CCC4)cc(C4CC4)c3o2)c1 [FT-1, 1-Cyclobutyl-N-((7-cyclopropyl-2-(4′-fluoro-2′-(4-methyl-4H-1,2,4-triazol-3-yl)-[1,1′-biphenyl]-3-yl)benzo[d]oxazol-5-yl)methyl)methanamine]	< 200	< 200	< 0.2	
COc1cc(CN[C@@H]2CCC[C@@H]2O)cn2nc(-c3cccc(-c4ccc(F)cc4-c4nncn4C)c3)nc12 [IH-9, (1S,2R)-2-(((2-(4′-Fluoro-2′-(4-methyl-4H-1,2,4-triazol-3-yl)-[1,1′-biphenyl]-3-yl)-8-methoxy-[1,2,4]triazolo[1,5-a]pyridin-6-yl)methyl)amino)cyclopentan-1-ol]	< 200	< 200	0.2 to 1	
Cn1cnnc1-c1cc(F)ccc1-c1cccc(-c2nc3cc(CO)cc(C(F)(F)F)c3o2)c1 [Example X-2, (2-(4′-Fluoro-2′-(4-methyl-4H-1,2,4-triazol-3-yl)-[1,1′-biphenyl]-3-yl)-7-(trifluoromethyl)benzo[d]oxazol-5-yl)methanol]	< 200	1000 to 10000	1 to 10	
Cn1cnnc1-c1cc(F)ccc1-c1cc(-c2nc3cc(CNCC(C)(C)O)cc(F)c3o2)cc(C2CC2)c1 [JQ-1, 1-(((2-(5-Cyclopropyl-4′-fluoro-2′-(4-methyl-4H-1,2,4-triazol-3-yl)-[1,1′-biphenyl]-3-yl)-7-fluorobenzo[d]oxazol-5-yl)methyl)amino)-2-methylpropan-2-ol]	< 200	< 200	< 0.2	
CC(c1cc(C(F)(F)F)c2oc(-c3cccc(C4(Cc5nncn5C)COC4)c3)nc2c1)N1CCC2(CC2)C1 (stereo not drawn) [AAB-9, 5-(1-{5-Azaspiro[2.4]heptan-5-yl}ethyl)-2-(3-{3-[(4-methyl-1,2,4-triazol-3-yl)methyl]oxetan-3-yl}phenyl)-7-(trifluoromethyl)-1,3-benzoxazole]	< 200	1000 to 10000	0.2 to 1	
Cn1cnnc1-c1cc(F)ccc1-c1cccc(-c2nc3cc(CNCC4(O)COC4)cc(C(F)(F)F)c3o2)c1 [AC-2, 3-((((2-(4′-Fluoro-2′-(4-methyl-4H-1,2,4-triazol-3-yl)-[1,1′-biphenyl]-3-yl)-7-(trifluoromethyl)benzo[d]oxazol-5-yl)methyl)amino)methyl)oxetan-3-ol]	< 200	1000 to 10000	0.2 to 1	
COC[C@@H](C)NCc1cc(F)c2oc(-c3cc(-c4ccc(F)cc4-c4nncn4C)cc(C4CC4)n3)nc2c1 [AFV-1, [(2-{6-Cyclopropyl-4-[4-fluoro-2-(4-methyl-1,2,4-triazol-3-yl)phenyl]pyridin-2-yl}-7-fluoro-1,3-benzoxazol-5-yl)methyl][(2R)-1-methoxypropan-2-yl]amine]	< 200	200 to 1000	0.2 to 1	
Cn1cnnc1-c1cc(F)ccc1-c1cccc(-c2nc3cc(CNCC4(O)CCC4)cc(F)c3o2)c1 [IZ-1, 1-((((7-Fluoro-2-(4′-fluoro-2′-(4-methyl-4H-1,2,4-triazol-3-yl)-[1,1′-biphenyl]-3-yl)benzo[d]oxazol-5-yl)methyl)amino)methyl)cyclobutan-1-ol]	< 200	< 200	< 0.2	
Cn1cnnc1-c1cc(F)ccc1-c1cccc(-c2nc3cc(NCCN4CCC4)cc(C(F)(F)F)c3o2)c1 [HZ-2, N-(2-(Azetidin-1-yl)ethyl)-2-(4′-fluoro-2′-(4-methyl-4H-1,2,4-triazol-3-yl)-[1,1′-biphenyl]-3-yl)-7-(trifluoromethyl)benzo[d]oxazol-5-amine]	< 200	200 to 1000	1 to 10	
Cn1cnnc1-c1cc(Cl)ccc1-c1ccnc(-c2nc3cc(CN[C@@H]4CCC[C@@H]4O)cc(C(F)(F)F)c3o2)c1 [AER-8, (1S,2R)-2-(((2-(4-(4-Chloro-2-(4-methyl-4H-1,2,4-triazol-3-yl)phenyl)pyridin-2-yl)-7-(trifluoromethyl)benzo[d]oxazol-5-yl)methyl)amino)cyclopentan-1-ol]	< 200	< 200	< 0.2	
CC(NCC1(O)CCC1)c1cc(F)c2oc(-c3cc(-c4ccc(F)cc4-c4nncn4C)cc(C4CC4)n3)nc2c1 (stereo in doubt) [AFQ-6, 1-({[(1S)-1-(2-{6-Cyclopropyl-4-[4-fluoro-2-(4-methyl-1,2,4-triazol-3-yl)phenyl]pyridin-2-yl}-7-fluoro-1,3-benzoxazol-5-yl)ethyl]amino}methyl)cyclobutan-1-ol]	< 200	< 200	< 0.2	
CCNc1cc(-c2ccc(F)cc2-c2nncn2C)cc(-c2nc3cc(CO)cc(C(F)(F)F)c3o2)n1 [AEL-1, {2-[6-(Ethylamino)-4-[4-fluoro-2-(4-methyl-1,2,4-triazol-3-yl)-phenyl]-pyridin-2-yl]-7-(trifluoromethyl)-1,3-benzoxazol-5-yl}-methanol]	200 to 1000	200 to 1000	10 to 50	
CN(C)Cc1cc2nc(-c3cc(-c4ccc(F)cc4-c4nncn4C)cc(C4CC4)n3)oc2c(F)c1F [AHH-3, [(2-{6-cyclopropyl-4-[4-fluoro-2-(4-methyl-1,2,4-triazol-3-yl)phenyl]pyridin-2-yl}-6,7-difluoro-1,3-benzoxazol-5-yl)methyl]dimethylamine]	< 200	200 to 1000		1 to 10
CO[C@@H](CO)c1cc(C(F)(F)F)c2oc(-c3cccc(-c4ccc(F)cc4-c4nncn4C)c3)nc2c1 (single isomer, unassigned) [EG-3]	< 200	200 to 1000	1 to 10	
Cn1cnnc1-c1cc(F)ccc1-c1cccc(-c2nc3cc(CNCC4COC4)cc(C(F)(F)F)c3o2)c1 [GB-2, 1-(2-(4′-Fluoro-2′-(4-methyl-4H-1,2,4-triazol-3-yl)-[1,1′-biphenyl]-3-yl)-7-(trifluoromethyl)benzo[d]oxazol-5-yl)-N-(oxetan-3-ylmethyl)methanamine]	< 200	< 200	< 0.2	
Cc1cc(CNCC2(F)CCC2)cc2nc(-c3cccc(-c4ccc(F)cc4-c4nncn4C)c3)oc12 [IC-1, 1-(2-(4′-Fluoro-2′-(4-methyl-4H-1,2,4-triazol-3-yl)-[1,1′-biphenyl]-3-yl)-7-methylbenzo[d]oxazol-5-yl)-N-((1-fluorocyclobutyl)methyl)methanamine]	< 200	< 200	0.2 to 1	
COc1cc(CN[C@@H]2CCC[C@@H]2O)cc2nc(-c3cccc([C@]4(c5nncn5C)C[C@@H](C)C4)c3)oc12 [AEC-2]	< 200	< 200	0.2 to 1	
CCN(CC[C@@H](O)C(F)(F)F)Cc1cc(C(F)(F)F)c2oc(-c3cccc(-c4ccc(F)cc4-c4nncn4C)c3)nc2c1 [CR-2]	< 200	< 200	0.2 to 1	
Cn1cnnc1-c1cc(F)ccc1-c1cccc(-c2nc3cc(NCCN4CC(F)(F)C4)cc(C(F)(F)F)c3o2)c1 [IF-2, N-(2-(3,3-Difluoroazetidin-1-yl)ethyl)-2-(4′-fluoro-2′-(4-methyl-4H-1,2,4-triazol-3-yl)-[1,1′-biphenyl]-3-yl)-7-(trifluoromethyl)benzo[d]oxazol-5-amine]	< 200	200 to 1000	1 to 10	
COC(C)(C)CNCc1cc(C(F)(F)F)c2oc(-c3cccc(-c4ccc(F)cc4-c4nncn4C)c3)nc2c1 [AI-2, N-((2-(4′-Fluoro-2′-(4-methyl-4H-1,2,4-triazol-3-yl)-[1,1′-biphenyl]-3-yl)-7-(trifluoromethyl)benzo[d]oxazol-5-yl)methyl)-2-methoxy-2-methylpropan-1-amine]	< 200	1000 to 10000	0.2 to 1	
Cn1cnnc1-c1cc(F)ccc1-c1cccc(-c2nc3cc(CN4CO[C@H]5CCC[C@H]54)cc(C(F)(F)F)c3o2)c1 [EH-1, 2-(4′-Fluoro-2′-(4-methyl-4H-1,2,4-triazol-3-yl)-[1,1′-biphenyl]-3-yl)-5-(((3aR,6aS)-tetrahydro-2H-cyclopenta[d]oxazol-3(3aH)-yl)methyl)-7-(trifluoromethyl)benzo[d]oxazole]	< 200	< 200	< 0.2	
Cn1cnnc1-c1cc(C#N)ccc1-c1cc(-c2nc3cc(CO)cc(F)c3o2)nc(C2CC2)c1 [AHD-1, 4-{2-cyclopropyl-6-[7-fluoro-5-(hydroxymethyl)-1,3-benzoxazol-2-yl]pyridin-4-yl}-3-(4-methyl-1,2,4-triazol-3-yl) benzonitrile]	200 to 1000	1000 to 10000	1 to 10	
C[C@H]1CCCN(Cc2cc(C(F)(F)F)c3[nH]c(-c4cccc(-c5ccccc5-c5nncn5C)c4)nc3c2)C1 [AAI-5, 2-[2′-(4-Methyl-1,2,4-triazol-3-yl)-[1,1′-biphenyl]-3-yl]-6-{[(3S)-3-methylpiperidin-1-yl]methyl}-4-(trifluoromethyl)-3H-1,3-benzodiazole]	200 to 1000	10000 to 50000	1 to 10	
